The values that follow are results of earlier work, collected in patent US20090285770A1, “Topical Compositions for Promoting Homeostasis of the Skin” (L'Oreal, priority 2005, published 2009).

The subject of one series is P1 integrins. Particulars: applied to skin ex vivo.
In series [1] the test system is β1 integrins. The following applies: cells in culture.
The subject of series [2] is β1 integrins.
Another series has as its system (6 integrins). Particulars: fibroblasts and keratinocytes in culture.
For series [3], the system named is α2, α3, α6, αv and β1 integrins. The following applies: keratinocytes in culture or reconstructed skins.

Read-outs that look alike come from different tables or passages of the source. Ends that are not written are not given here.

In the case of “GPQGPQ [COLLAXYL, collagen mimetic hexapeptide sold by Vincience]”, in the series with P1 integrins, the “expression of P1 integrins” value is listed as “stimulates the expression of P1 integrins”. For the substance “KLDAPT [VINCI 02, fibronectin mimetic hexapeptide sold by Vincience]”, the “expression of β1 integrins” value in the series on β1 integrins [1] is “stimulates the expression of β1 integrins”. With “RDFTKATNIRLRFLR [VINCI 01, laminin mimetic oligopeptide sold by Vincience]”, in the series with β1 integrins [2], the “expression of β1 integrins” value was “stimulates the expression of β1 integrins”. SERILESINE: the “expression of (6 integrins)” value in the series with (6 integrins) is “increasing the expression of (6 integrins”.

With copper gluconate, in series [3], the “expression of integrins, in particular the α2, α3, α6, αv and β1 integrins” value (shortened to “expression of integrins”) is listed as “capable of increasing the expression of integrins”.

As for manganese gluconate, in series [3], the “expression of integrins” value is reported as “capable of increasing the expression of integrins”.

With zinc gluconate, in series [3], the “expression of integrins” value is reported as “capable of increasing the expression of integrins”.
